From patent publication US20260115250A1, “METHODS OF TREATING AGE-RELATED MACULAR DEGENERATION” (Character Biosciences, Inc., priority 2022, published 2026) come the findings set out here.

Experiment [1] in a line: DMPC solubility assay, 0.5 mM DMPC (turbidity reduction). In kind it is biochemical. Conditions: for EC50: 3.16-100 μM peptides, 15 minutes; for DMPC solubilizing activity: FIGS. 2A-2D and 3A-3C. The procedure:
In this example, peptide stocks were diluted to 200 μM in H2O (a 2× solution) and 50 μL of peptide solution was transferred in triplicate into 96-well plates. A one mM solution of 1,2-dimyristoyl-sn-glycero-3-phosphocholine (DMPC) in H2O was prepared, and using a multichannel pipet, 50 μL DMPC solution was rapidly added to the plate. Peptide and lipid solutions were incubated at room temperature for 15 minutes with a final concentration of 100 μM peptides and 0.5 mM DMPC. After 15 minutes, absorbance was read on a plate reader at 405 nm. […] Data are presented as mean+SD over two runs.
In these experiments, DMPC solubility titration curves were generated. Peptide stocks were diluted to 200 μM in H2O (a 2× solution) and serially diluted in H2O over 4 concentrations, then 50 μL of peptide solutions were distributed in triplicate into 96-well plates. A 1 mM solution of 1,2-dimyristoyl-sn-glycero-3-phosphocholine (DMPC) in H2O was prepared, and using a multichannel pipet, 50 μL DMPC solution was rapidly added to the plate. Peptide and lipid solutions were incubated at room temperature for 15 minutes with final concentrations of 3.16-100 μM peptides and 0.5 mM DMPC. After 15 minutes, absorbance was read on a plate reader at 405 nm. […] Data are presented as mean+SD over two runs. Non-linear regression was used to calculate EC50 values.

The next experiment concerns HMC3 cells. The experiment in a line: HMC3 cholesterol efflux. In kind it is cell-based, human. Particulars: HMC3, 20 μM peptide, 4 hours. The procedure: (§1) FIGS. 27A-27B and FIG. 28 illustrate HMC3 cholesterol efflux. Fully confluent 96-well plates of HMC3 cells were treated for 1 hour in serum-free EMEM containing 10 mM methyl-β-cyclodextrin, 100 μM cholesterol, and 25 μM BODIPY cholesterol. Cells were then washed and incubated overnight in serum free EMEM containing 1 μM LXR agonist GW3965, 2 μg/mL ACAT inhibitor, and 0.2% BSA (LXR Agonist treated), or serum-free EMEM containing 2 μg/mL ACAT inhibitor, and 0.2% BSA (Control). Cells were washed and incubated with 20 μM peptides diluted in serum-free Fluorobrite DMEM for 4 hours at 37° C. Media was transferred to a new 96-well plate and fresh serum-free Fluorobrite DMEM was placed on the cells. Media and cellular fluorescence were read on a Promega GloMax at 475 nm excitation, 500-550 emission. Fluorescence values were background corrected from no treatment conditions and percent efflux was calculated by the following equation: % efflux=(Media Fluorescence values)/(Media+Cell Fluorescence values). Data are presented as mean+SD over two runs per peptide.
as §1, with “FIGS. 30A-30J show” for “FIGS. 27A-27B and FIG. 28 illustrate”, “cholesterol efflux titration curves for the indicated peptides.” for “cholesterol efflux.”, “μM” for “μM LXR agonist”, “or serum free” for “or serum-free”, “with 0-100” for “with 20”, “peptides serially” for “peptides”

The target in a further experiment is T1, ABCA1 (Homo sapiens, UniProt O95477).
T1 construct: endogenous in cells; host or cells: ARPE-19
The experiment in a line: membrane ABCA1 stability testing in ARPE-19 cells treated with mCRP. It is filed as cell-based. Particulars: ARPE-19, mCRP, 20 μM peptide, 24 hours. The procedure:
ARPE-19 cells were seeded at 100,000 cells per well on 12-well plates and were allowed to grow to confluence. To prepare monomeric CRP (mCRP), recombinant CRP was prepared in a PBS solution containing 8 M Urea and 10 mM EDTA and incubated at 37° C. for 2 hours prior to desalting with a Zeba spin column (7K MW cutoff). mCRP was prepared to a 2× solution of 20 μg/mL. A 2× solution of 40 μM peptides was prepared in serum-free DMEM and serially diluted 1:2 over 4 concentrations. mCRP and peptides were added 1:1 to cells for 24 hours at 37° C. before isolating membrane protein and measuring membrane ABCA1 levels by western blot. Blots were quantified in ImageJ. Signals were further normalized to the LXR agonist treated group to determine percent (%) ABCA1 remaining. Treatment with LXR agonist increased membrane ABCA1 levels in this assay, but following treatment with mCRP, membrane ABCA1 levels were decreased.
FIGS. 35 and 36 show membrane ABCA1 stability testing using ARPE-19 cells. ARPE-19 cells were seeded at 100,000 cells per well on 12-well plates and were allowed to grow to confluence. To prepare monomeric CRP (mCRP), recombinant CRP was prepared in a PBS solution containing 8 M Urea and 10 mM EDTA and incubated at 37° C. for 2 hours prior to desalting with a Zeba spin column (7K MW cutoff). mCRP was prepared to a 2× solution of 20 μg/mL. A 2× solution of 40 μM peptides was prepared in serum-free DMEM. CRP and peptides were added 1:1 to cells for 24 hours at 37° C. before isolating membrane protein and measuring membrane ABCA1 levels by western blot. Blots were quantified in ImageJ. In FIG. 35, Signals were further normalized to the T-087 treated group to determine percent (%) ABCA1 levels compared to peptide T-087 treated cells. In FIG. 36, Signals were further normalized to the peptide T-101 treated group to determine percent (%) ABCA1 levels compared to peptide T-101 treated cells.

T1 sequence (O95477 whole entry): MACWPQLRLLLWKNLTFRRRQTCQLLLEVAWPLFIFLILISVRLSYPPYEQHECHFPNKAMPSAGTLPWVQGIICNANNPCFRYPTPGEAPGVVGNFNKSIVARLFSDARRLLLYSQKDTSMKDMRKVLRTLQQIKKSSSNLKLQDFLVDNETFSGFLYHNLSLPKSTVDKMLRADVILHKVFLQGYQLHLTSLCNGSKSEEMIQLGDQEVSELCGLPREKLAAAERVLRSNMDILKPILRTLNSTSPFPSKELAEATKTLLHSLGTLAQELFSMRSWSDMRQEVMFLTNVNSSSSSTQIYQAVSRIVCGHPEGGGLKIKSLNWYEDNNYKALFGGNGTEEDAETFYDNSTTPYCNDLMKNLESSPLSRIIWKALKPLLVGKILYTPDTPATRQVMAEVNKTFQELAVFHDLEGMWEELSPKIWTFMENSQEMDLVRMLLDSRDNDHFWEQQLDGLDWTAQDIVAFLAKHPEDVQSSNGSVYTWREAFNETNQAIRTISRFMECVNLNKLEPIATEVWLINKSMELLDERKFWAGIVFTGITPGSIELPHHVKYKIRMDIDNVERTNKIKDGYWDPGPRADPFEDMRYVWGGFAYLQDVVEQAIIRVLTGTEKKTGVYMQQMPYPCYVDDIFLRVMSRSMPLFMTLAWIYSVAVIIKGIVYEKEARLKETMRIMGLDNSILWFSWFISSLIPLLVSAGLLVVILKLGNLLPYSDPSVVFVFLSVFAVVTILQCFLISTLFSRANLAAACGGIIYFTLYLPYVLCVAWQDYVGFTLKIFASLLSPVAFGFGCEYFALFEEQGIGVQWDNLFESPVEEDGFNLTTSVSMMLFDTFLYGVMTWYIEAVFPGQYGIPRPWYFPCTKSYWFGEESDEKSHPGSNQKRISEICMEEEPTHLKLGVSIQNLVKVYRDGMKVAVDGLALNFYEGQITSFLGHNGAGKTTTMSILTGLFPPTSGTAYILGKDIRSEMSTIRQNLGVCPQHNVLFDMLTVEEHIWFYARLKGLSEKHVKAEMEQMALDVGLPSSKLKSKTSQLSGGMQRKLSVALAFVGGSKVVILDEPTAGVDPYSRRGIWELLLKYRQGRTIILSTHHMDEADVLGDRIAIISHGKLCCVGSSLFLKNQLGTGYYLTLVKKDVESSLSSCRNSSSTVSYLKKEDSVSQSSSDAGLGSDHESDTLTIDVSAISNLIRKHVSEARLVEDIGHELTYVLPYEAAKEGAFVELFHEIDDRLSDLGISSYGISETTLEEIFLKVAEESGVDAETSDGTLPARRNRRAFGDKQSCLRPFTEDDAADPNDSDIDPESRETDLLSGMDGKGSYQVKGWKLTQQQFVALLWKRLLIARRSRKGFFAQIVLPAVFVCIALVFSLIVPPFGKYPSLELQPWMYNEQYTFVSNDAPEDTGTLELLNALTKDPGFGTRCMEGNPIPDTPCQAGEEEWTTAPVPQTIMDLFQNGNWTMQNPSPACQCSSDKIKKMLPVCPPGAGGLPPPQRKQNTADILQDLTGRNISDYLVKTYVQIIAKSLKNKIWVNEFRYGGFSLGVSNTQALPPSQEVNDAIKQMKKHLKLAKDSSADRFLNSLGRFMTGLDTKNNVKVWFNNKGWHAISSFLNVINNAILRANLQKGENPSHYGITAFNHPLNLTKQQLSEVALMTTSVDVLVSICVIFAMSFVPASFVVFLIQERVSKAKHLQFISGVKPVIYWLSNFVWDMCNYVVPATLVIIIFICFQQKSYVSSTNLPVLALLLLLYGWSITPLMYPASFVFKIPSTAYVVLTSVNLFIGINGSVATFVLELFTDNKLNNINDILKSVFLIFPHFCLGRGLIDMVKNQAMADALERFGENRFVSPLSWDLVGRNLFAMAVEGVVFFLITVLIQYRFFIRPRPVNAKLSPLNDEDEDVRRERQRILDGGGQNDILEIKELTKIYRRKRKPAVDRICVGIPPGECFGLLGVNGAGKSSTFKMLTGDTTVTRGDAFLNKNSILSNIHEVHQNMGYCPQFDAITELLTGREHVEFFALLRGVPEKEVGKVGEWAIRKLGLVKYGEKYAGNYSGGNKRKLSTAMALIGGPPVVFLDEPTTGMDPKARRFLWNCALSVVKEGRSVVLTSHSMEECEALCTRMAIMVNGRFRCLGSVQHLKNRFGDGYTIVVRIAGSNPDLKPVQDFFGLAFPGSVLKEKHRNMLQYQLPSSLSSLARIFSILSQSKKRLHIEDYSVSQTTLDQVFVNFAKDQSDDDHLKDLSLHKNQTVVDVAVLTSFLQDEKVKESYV

Substance “HLRKLRKRLLRDADDLQDRLAEYQARAKEAFDR [T-063, therapeutic peptide]” gave a 50% effective concentration (EC50) in experiment [1] of 111 µM.
Still for that read-out and setting: the result for “HLRKLRKRLLRDGDDLQDRLAEYQARAKEAFDR [T-051, therapeutic peptide]” reads 15.6 µM.
On the same count and under the same terms, the result for “HLRKLRKRLLRDGDKLQDRLAEYQAGAKEAFDR [T-054, therapeutic peptide]” reads 123 µM.
“HLRKLRKRLLRDGDKLSDRLAEYVARAKEAFDR [T-080, therapeutic peptide]” registered an EC50 in experiment [1] of 155 µM.
With “T-005: therapeutic peptide (PLRAELQEGARQKLHELQEKLS)”, the DMPC solubilizing activity entry in experiment [1] was “did not have significant solubilizing activity”.
For the substance “T-006: therapeutic peptide (QDEPPQSPWDRVKDLATVYVDVLKDSGRDYVSQFEGSALGKQLN)”, the DMPC solubilizing activity entry in experiment [1] is “significant activity”.
Regarding “T-010: therapeutic peptide (RDADDLQKRLAVYQAGAREGAE)”, in experiment [1], the DMPC solubilizing activity entry is “significant activity”.
The same measure, in the same setting: to “T-011: therapeutic peptide (DADDLQKRLAVYQAGAREGAER)” belongs “significant activity”.
The same measure, in the same setting: to “T-014: therapeutic peptide (EQAQQIRLQAEAFQARLKSWFE)” belongs “significant activity”; to T-015: therapeutic peptide (LVGRQLEEFL), “did not have significant solubilizing activity”; to “T-017: therapeutic peptide (PLRAELQEGARQKLHELQEKLSPPLRAELQEGARQKLHELQEKLS)”, “did not have significant solubilizing activity”.
For the substance “T-019: therapeutic peptide (NMDEINKRLHAYEEGVKKAADE)”, the DMPC solubilizing activity result in experiment [1] is given as “significant activity”.
“T-020: therapeutic peptide (DGDKLCDRLAEYCARAKEAFDR)”: in experiment [1], the DMPC solubilizing activity entry is listed as “did not have significant solubilizing activity”.
For the substance “T-024: therapeutic peptide (FEHWISGIYSECKHLIQE)”, the DMPC solubilizing activity entry in experiment [1] is “significant activity”.
Same read-out and setting: the result for “T-026: therapeutic peptide (GFGDWIDSIEAFSRSLHS)” reads “significant activity”; that for “T-099: therapeutic peptide (RRMKDYLKKFQETLKREFRDWE)”, “did not have significant solubilizing activity”.
“T-141: variant of peptide T-101 (RSGADALESALKELKRFIREAT)”: the “cholesterol efflux in the presence of LXR agonist” value (from here on “cholesterol efflux in the presence”) in the experiment with HMC3 cells is on record as “greater cholesterol efflux”. In the experiment with ABCA1, the “membrane ABCA1 levels compared to peptide T-101 treated cells” value is on record as “reduction of membrane ABCA1 levels”.
The like results for “T-145: variant of peptide T-101 (RSGADALESGLKELKRFIREWT)” were, in that order, “greater cholesterol efflux” and “reduction of membrane ABCA1 levels”.
In the case of “T-148: variant of peptide T-101 (RSGADALESAAAALKRFIREWT)”, the “cholesterol efflux in the presence” value in the experiment on HMC3 cells is recorded as “greater cholesterol efflux”. Besides, the “membrane ABCA1 levels compared to peptide T-101 treated cells” value in the experiment with ABCA1 was “reduction of membrane ABCA1 levels”.
Regarding “T-149: variant of peptide T-101 (RSGADALESALKEAAAFIREWT)”, in the experiment with HMC3 cells, the “cholesterol efflux in the presence” value is “greater cholesterol efflux”. Also, in the experiment with ABCA1, the “membrane ABCA1 levels compared to peptide T-101 treated cells” value is reported as “reduction of membrane ABCA1 levels”.
The like results for “T-150: variant of peptide T-101 (RSGADALESALKELKRAAAEWT)” were, in that order, “greater cholesterol efflux” and “reduction of membrane ABCA1 levels”.

By EC50 is commonly meant the concentration that produces a half-maximal response.
